The record followed here is patent publication US5773414A, “Endothelin antagonists” (Warner-Lambert Company, priority 1997, dated 1998).

Like-named read-outs stand apart in the source and are kept apart here. Numbered stars: 1 amine (or outer) side, 2 acyl side, 3 side chain; on linkers, the order of the positions; unused ones are H or OH. Square brackets hold non-standard residues; d marks the D form. Peptide text beside a SMILES is read from it. * marks the point of attachment. dDip = N[C@@H](C(=O)O)C(c1ccccc1)c1ccccc1; d2Nal = N[C@H](Cc1ccc2ccccc2c1)C(=O)O; Orn = NCCC[C@H](N)C(=O)O; NHcHex = C1CCC(N*)CC1; CO = O=C([*:1])[*:2]; Propionyl = CCC(=O)*

The target in experiment [1] is T1, endothelin receptor (rat heart ventricle) (Rattus norvegicus, UniProt P26684).
T1 sequence (P26684 21-426): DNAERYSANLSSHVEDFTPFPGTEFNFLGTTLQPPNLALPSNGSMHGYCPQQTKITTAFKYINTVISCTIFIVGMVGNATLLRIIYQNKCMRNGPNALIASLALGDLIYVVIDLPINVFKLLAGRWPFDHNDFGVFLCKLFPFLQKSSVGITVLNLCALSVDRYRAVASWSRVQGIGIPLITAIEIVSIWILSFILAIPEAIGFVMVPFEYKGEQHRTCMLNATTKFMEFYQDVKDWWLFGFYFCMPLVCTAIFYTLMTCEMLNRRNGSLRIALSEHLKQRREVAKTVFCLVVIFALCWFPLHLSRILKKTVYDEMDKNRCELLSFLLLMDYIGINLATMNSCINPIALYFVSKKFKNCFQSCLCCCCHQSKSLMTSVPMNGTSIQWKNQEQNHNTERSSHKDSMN
Put plainly: Rat Heart Ventricle Binding Assay ([125I]-ET-1). As to conditions: Table II. The method, then: Rat Heart Ventricle Binding Assay
IC50 values are calculated by weighing nonlinear regression curve-fitting to the mass-action (Langmuir) equation.

The target of experiment [2] is T2, ETA (Oryctolagus cuniculus, UniProt A5A8K3).
T2 construct: The cells used were rabbit renal artery vascular smooth muscle cells; endogenous in cells; host or cells: rabbit renal artery vascular smooth muscle cells
T2 sequence (A5A8K3 21-427): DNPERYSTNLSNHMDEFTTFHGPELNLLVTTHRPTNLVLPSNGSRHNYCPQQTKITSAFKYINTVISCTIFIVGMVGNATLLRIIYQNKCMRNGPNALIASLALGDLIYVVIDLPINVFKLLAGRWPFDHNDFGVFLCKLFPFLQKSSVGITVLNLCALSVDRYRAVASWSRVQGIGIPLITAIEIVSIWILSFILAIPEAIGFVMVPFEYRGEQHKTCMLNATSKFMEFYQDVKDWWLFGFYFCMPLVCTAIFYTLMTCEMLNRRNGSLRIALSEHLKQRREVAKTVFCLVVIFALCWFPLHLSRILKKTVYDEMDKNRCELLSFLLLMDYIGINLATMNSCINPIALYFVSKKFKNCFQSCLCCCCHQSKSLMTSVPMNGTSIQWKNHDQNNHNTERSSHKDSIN
In words: Endothelin Receptor Binding Assay-A (ETA), intact cell binding of [125I]-ET-1. Also noted: species or system rabbit. As to conditions: Table IIa; rabbit renal artery vascular smooth muscle cells; read-out: Binding Assay IC50 at Receptor Subtypes ETA. How it is done: The cells used were rabbit renal artery vascular smooth muscle cells grown in a 48-well dish (1 cm^2) (confluent cells).
The growth media was Dulbeccos Modified Eagles/Ham's F12 which contained 10 fetal bovine serum and antibiotics (penicillin/streptomycin/fungizone).
Second, remove the assay buffers, place the dish on ice, and add 150 μL of cold assay buffer described above to each well. […] Next, place dish in a 37° C. water bath for about 2 hours and gently agitate the dish every 15 minutes. Discard the radioactive incubation mixture in the sink and wash wells 3 times with 1 mL of cold phosphate buffered saline. Last, add […] of 0.25M sodium hydroxide, agitate for 1 hour on rotator, and then transfer the sodium hydroxide extract to gamma counting tubes and count the radioactivity.

The target in experiment [3] is T3, ETB (Rattus norvegicus, UniProt P21451).
T3 construct: thaw one aliquot of frozen rat cerebellar membranes; from tissue; host or cells: rat cerebellar membranes
T3 sequence (P21451 27-442): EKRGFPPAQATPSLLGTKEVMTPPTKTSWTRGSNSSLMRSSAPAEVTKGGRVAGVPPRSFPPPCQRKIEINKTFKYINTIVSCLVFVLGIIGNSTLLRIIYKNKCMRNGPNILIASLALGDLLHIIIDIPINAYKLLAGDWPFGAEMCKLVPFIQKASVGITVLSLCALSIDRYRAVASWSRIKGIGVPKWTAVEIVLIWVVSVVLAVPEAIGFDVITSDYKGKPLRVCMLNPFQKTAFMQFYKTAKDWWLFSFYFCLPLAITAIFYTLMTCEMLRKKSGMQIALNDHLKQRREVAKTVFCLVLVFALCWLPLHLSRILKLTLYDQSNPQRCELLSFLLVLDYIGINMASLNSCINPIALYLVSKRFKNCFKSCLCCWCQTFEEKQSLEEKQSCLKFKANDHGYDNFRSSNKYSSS
In words: Endothelin Receptor Binding Assay-B (ETB), [125I]-ET-1 binding in rat cerebellar membranes. As to conditions: Table IIa; rat cerebellar membranes; read-out: Binding Assay IC50 at Receptor Subtypes ETB. How it is done:
The tissue is made up of 20 mM tris(hydroxymethyl)aminomethane hydrochloride (Trizma) buffer, 2 mM ethylenediaminetetraacetate, 100 μM phenylmethylsulfonyl fluoride.
First, thaw one aliquot of frozen rat cerebellar membranes (2 mg protein in 0.5 mL). Next, add 0.5 mL membrane aliquot to 4.5 mL cold tissue buffer, polytron at 7,500 revolutions per minute for 10 seconds. Finally, dilute tissue suspension 1/100 (0.1 mL suspension+9.9 mL tissue buffer), polytron again, and place ice.
Mix in 150 μL of tissue to each tube, vortex briefly, then tap to force all liquids to bottom (total assay volume=250 μL). Then place the tubes in a 37° C. water bath for 2 hours.
Add 2.5 mL cold water buffer (50 mM Trizma buffer) to each tube, filter, and then wash tube with additional 2.5 mL wash buffer and add to filter. Finally, wash filters with an additional 2.5 mL of cold wash buffer.
Count filters for radioactivity in gamma counter.

The target in experiment [4] is T4, endothelin-stimulated inositol phosphate accumulation in Rat-1 cells (Rattus norvegicus, UniProt P26684).
T4 sequence (P26684 21-426): T1 sequence (P26684 21-426)
Put plainly: Inositol Phosphate Accumulation. Type of experiment: cell-based. The following applies: @ 50 μM. The method, then:
Inositol Phosphate Accumulation
The functional activity of compounds of Formula I is determined in Rat-1 cells by measuring intra-cellular levels of second messengers. […] Antagonist activity is assessed as the ability of added compounds to reduce endothelin-stimulated inositol phosphate accumulation.

On to `CC[C@H](C)[C@H](NC(=O)[C@H](CC(=O)O)NC(=O)[C@@H](CC(C)C)NC(=O)[C@H](NC(C)=O)C(c1ccccc1)c1ccccc1)C(=O)N[C@H](C(=O)N[C@@H](Cc1c[nH]c2ccccc12)C(=O)O)[C@@H](C)CC` [Example 23, Ac--D--Dip--D--Leu--Asp--Ile--Ile--Trp] (Ac-[dDip][dL]DIIW-OH), for which testing at 10 µM in experiment [1] gave an inhibition of 41.3%.

`CC[C@H](C)[C@H](NC(=O)[C@H](CC(=O)O)NC(=O)[C@H](CCCN)NC(=O)[C@H](NC(C)=O)C(c1ccccc1)c1ccccc1)C(=O)N[C@H](C(=O)N[C@@H](Cc1c[nH]c2ccccc12)C(=O)O)[C@@H](C)CC` [Example 21, Ac--D--Dip--Orn--Asp--Ile--Ile--Trp] (Ac-[dDip][Orn]DIIW-OH): in experiment [1] (@ 0.05 μM), the inhibition – broadly, how much of the control response was suppressed – at 0.05 µM turned out to be 79%. Further, the IC50 (commonly the concentration at which inhibition is half-maximal) in experiment [2] worked out at 15 nM; in experiment [3], 220 nM.

For `CC[C@H](C)[C@H](NC(=O)[C@H](CC(=O)O)NC(=O)[C@H](CC(C)C)NC(=O)[C@H](NC(C)=O)C(c1ccccc1)c1ccccc1)C(=O)N[C@@H](CCCCN)C(=O)N[C@@H](Cc1c[nH]c2ccccc12)C(=O)O` [Example 17, Ac--D--Dip--Leu--Asp--Ile--Lys--Trp] (Ac-[dDip]LDIKW-OH), the inhibition at 10 µM in experiment [1] was 24.6%. The IC50 is over 10000 nM in experiment [2] and 4200 nM in experiment [3].

Regarding `CC[C@H](C)[C@H](NC(=O)[C@H](CC(=O)O)NC(=O)[C@H](NC(C)=O)C(c1ccccc1)c1ccccc1)C(=O)N[C@H](C(=O)N[C@@H](Cc1c[nH]c2ccccc12)C(=O)O)[C@@H](C)CC` [Example 94, Ac--D--Dip--Asp--Ile--Ile--Trp] (Ac-[dDip]DIIW-OH; C-terminus assumed), the IC50 in experiment [2] is over 1000 nM; in experiment [3] it was 250 nM.

For `CC[C@H](C)[C@H](NC(=O)[C@@H]1CCCN1C(=O)[C@H](CC(N)=O)NC(=O)[C@H](CC(C)C)NC(=O)[C@@H](Cc1ccccc1)NC(C)=O)C(=O)N[C@@H](Cc1c[nH]c2ccccc12)C(=O)O` [Example 90, Ac--D--Phe--Leu--Asn--Pro--Ile--Trp] (Ac-[dF]LNPIW-OH), the values for the IC50 in experiment [2] and in experiment [3] were 1980 nM and 2800 nM, respectively.

As for `CC[C@H](C)[C@H](NC(=O)[C@H](CC(=O)O)NC(=O)[C@H](CC(C)C)NC(=O)[C@H](NC(C)=O)C(c1ccccc1)c1ccccc1)C(=O)N[C@@H](CCC(=O)O)C(=O)N[C@@H](Cc1c[nH]c2ccccc12)C(=O)O` [Example 18, Ac--D--Dip--Leu--Asp--Ile--Glu--Trp] (Ac-[dDip]LDIEW-OH), the inhibition at 10 µM in experiment [1] was determined as 37%.

For the molecule `CC[C@H](C)[C@H](NC(=O)[C@H](CC(=O)O)NC(=O)[C@H](CC(C)C)NC(=O)[C@H](N)Cc1ccc2ccccc2c1)C(=O)N[C@H](C(=O)N[C@@H](Cc1c[nH]c2ccccc12)C(=O)O)[C@@H](C)CC` [Example 4, D-2-Nal--Leu--Asp--Ile--Ile--Trp] (H-[d2Nal]LDIIW-OH; N-terminus and C-terminus assumed), the inhibition at 50 µM in experiment [4] (Table II, read-out: IP (Inositol Phosphate) Accumulation, Inhibition) stood at 53%; in experiment [4] (Table IIa, read-out: IP (Inositol Phosphate) Accumulation, % Inhibition) it was 53%.

Regarding `CC[C@H](C)[C@H](NC(=O)[C@H](CCCCN)NC(=O)[C@H](CC(C)C)NC(=O)[C@H](NC(C)=O)C(c1ccccc1)c1ccccc1)C(=O)N[C@H](C(=O)N[C@@H](Cc1c[nH]c2ccccc12)C(=O)O)[C@@H](C)CC` [Example 69, Ac--D--Dip--Leu--Lys--Ile--Ile--Trp] (Ac-[dDip]LKIIW-OH), the IC50 in experiment [2] came out at 480 nM; in experiment [3] it was 33 nM.

Regarding `CC[C@H](C)[C@H](NC(=O)[C@H](CC(=O)O)NC(=O)[C@H](CCC(=O)O)NC(=O)[C@@H](Cc1ccccc1)NC(C)=O)C(=O)N[C@H](C(=O)N[C@@H](Cc1c[nH]c2ccccc12)C(=O)O)[C@@H](C)CC` [Example 9, Ac--D--Phe--Glu--Asp--Ile--Ile--Trp] (Ac-[dF]EDIIW-OH), the IC50 in experiment [2] worked out at 650 nM; in experiment [3] it was 1300 nM.

With `CC[C@H](C)[C@H](NC(=O)[C@H](C)NC(=O)[C@H](CC(=O)O)NC(=O)[C@H](CC(C)C)NC(=O)[C@@H](Cc1ccccc1)NC(C)=O)C(=O)N[C@@H](Cc1c[nH]c2ccccc12)C(=O)O` [Example 73, Ac--D--Phe--Leu--Asp--Ala--Ile--Trp] (Ac-[dF]LDAIW-OH), the results for the IC50 in experiment [2] and in experiment [3] were 3500 nM and 330 nM, respectively.

For the molecule `CC[C@H](C)[C@H](NC(=O)[C@H](Cc1ccccc1)NC(=O)[C@H](CC(C)C)NC(=O)[C@H](NC(C)=O)C(c1ccccc1)c1ccccc1)C(=O)N[C@H](C(=O)N[C@@H](Cc1c[nH]c2ccccc12)C(=O)O)[C@@H](C)CC` [Example 16, Ac--D--Dip--Leu--Phe--Ile--Ile--Trp] (Ac-[dDip]LFIIW-OH), the IC50 is 1000 nM in experiment [2] and 8 nM in experiment [3].

`CC[C@H](C)[C@H](NC(=O)[C@H](CC(=O)O)NC(=O)[C@H](CC(C)C)NC(=O)[C@H](NC(=O)NC)C(c1ccccc1)c1ccccc1)C(=O)N[C@H](C(=O)N[C@@H](Cc1c[nH]c2ccccc12)C(=O)O)[C@@H](C)CC` [Example 37, Me(U) --D--Dip--Leu--Asp--Ile--Ile--Trp] ({NHMe-CO}-[dDip]LDIIW-OH): the half-maximal inhibitory concentration (IC50) stood at 1000 nM in experiment [2] and 1500 nM in experiment [3].

`CCC(=O)N[C@@H](C(=O)N[C@@H](CC(C)C)C(=O)N[C@@H](CC(=O)O)C(=O)N[C@H](C(=O)N[C@H](C(=O)N[C@@H](Cc1c[nH]c2ccccc12)C(=O)O)[C@@H](C)CC)[C@@H](C)CC)C(c1ccccc1)c1ccccc1` [Example 31, Et--D--Dip--Leu--Asp--Ile--Ile--Trp] (Propionyl-[dDip]LDIIW-OH): the 50% inhibitory concentration (IC50) came out at 1800 nM in experiment [2] and 2000 nM in experiment [3].

Consider `CC[C@H](C)[C@H](NC(=O)[C@H](CC(=O)O)NC(=O)[C@H](CC(C)C)NC(=O)[C@H](NC(=O)NC1CCCCC1)C(c1ccccc1)c1ccccc1)C(=O)N[C@H](C(=O)N[C@@H](Cc1c[nH]c2ccccc12)C(=O)O)[C@@H](C)CC` [Example 36, Cxl(U)--D--Dip--Leu--Asp--Ile--Ile--Trp] ({NHcHex-CO}-[dDip]LDIIW-OH), for which the IC50 is 820 nM in experiment [2] and 50 nM in experiment [3].

On to `CC[C@H](C)[C@H](NC(=O)[C@H](CC(=O)O)NC(=O)[C@H](CC(C)C)NC(=O)[C@@H](Cc1ccccc1)NC(C)=O)C(=O)N[C@@H](C)C(=O)N[C@@H](Cc1c[nH]c2ccccc12)C(=O)O` [Example 82, Ac--D--Phe--Leu--Asp--Ile--Ala--Trp] (Ac-[dF]LDIAW-OH), for which the values for the IC50 in experiment [2] and in experiment [3] were 8000 nM and over 1000 nM, respectively.
